The record followed here is patent publication US12606556B2, “TYK-2 inhibitor” (BEIGENE, LTD., priority 2020, dated 2026).

Assay [1] concerns the target T1, JAK1-JH2 protein (aa 561-860, in-house) (Homo sapiens, UniProt P23458).
T1 construct: JAK1-JH2 protein (aa 561-860, in-house); made in house
The experiment in a line: JAK1-JH2 biochemical assay (HTRF, blocking of JAK1-JH2 protein with its probe). Type of assay: binding. The following applies: 1.17 nM recombinant JAK1-JH2, Probe 2. The procedure, abridged: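 HTRF probe-displacement assay using recombinant human JAK1 pseudokinase domain (aa 561-860, 1.17 nM in pre-incubation step), pre-incubated 0.5 h at room temperature with 10-dose 5-fold compound series. Buffer: 20 mM HEPES pH 7.5, 10 mM MgCl2, 0.005% BSA, 2 mM DTT, 0.015% Brij-35. IC50 by four-parameter logistic fit of 615/665 nm ratio.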
(TR-FRET usually uses a lanthanide donor and a delayed reading to cut background.)

Assay [2] deals with JAK2, TYK2/p-STAT4 (Tyr693) activated by IL-12 in NK-92 cell line. Description: IL-12-JAK2, TYK2/p-STAT4 (Tyr693) inhibition cellular assay. Type of assay: cell-based. The settings on record: for IC50: NK92, 0.5 h, NK-92 cells, IL-12 40 ng/ml, 30 min, read-out: Cellular assay pSTAT4/IL-12 IC50; for Cellular assay Selectivity fold (TYK2/JAK1): pSTAT4/IL-12 vs pSTAT3/IL-6 cellular IC50. The procedure, abridged:
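NK-92 cells were starved overnight without IL-2 and seeded at 5×10^4 per well in 1640 medium with 0.1% BSA. Lysate p-STAT4 (Tyr693) was measured by AlphaLISA SureFire, and IC50 was fitted with a 4-parameter logistic model.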

The target of assay [3] is T2, TYK2-JH2 (aa 575-869, in-house) protein (Homo sapiens, UniProt P29597).
T2 construct: TYK2-JH2 (aa 575-869, in-house) protein; made in house
T2 sequence (P29597 575-869): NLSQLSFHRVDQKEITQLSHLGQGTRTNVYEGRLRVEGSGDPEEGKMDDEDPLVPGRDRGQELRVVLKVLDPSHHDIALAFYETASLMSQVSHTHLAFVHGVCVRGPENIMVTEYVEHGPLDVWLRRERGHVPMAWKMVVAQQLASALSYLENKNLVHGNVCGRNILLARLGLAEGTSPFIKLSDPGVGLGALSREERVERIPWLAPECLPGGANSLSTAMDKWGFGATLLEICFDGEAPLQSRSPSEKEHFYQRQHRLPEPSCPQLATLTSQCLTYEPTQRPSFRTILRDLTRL
The experiment in a line: TYK2-JH2 biochemical assay (HTRF, blocking of TYK2-JH2 protein with its probe). Type of assay: binding. The following applies: for IC50: HTRF, 0.2 nM recombinant TYK2-JH2, Probe 1; for Biochemical assay Selectivity fold (TYK2/JAK1): TYK2-JH2 vs JAK1-JH2 biochemical IC50. An outline of the steps:
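Recombinant TYK2-JH2 (0.2 nM) pre-incubated with compounds (10 doses, 5-fold dilutions) 0.5 h at RT in HEPES pH 7.5 buffer with MgCl2, BSA, DTT, Brij-35; biotinylated probe (10 nM working solution, KD=10 nM) plus anti-6His Tb cryptate/streptavidin-XL665 added, 1 h RT. HTRF ratio read; IC50 from four-parameter logistic fit.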

Assay [4] relates to JAK1/p-STAT3(Tyr705) activated by IL-6 in TF-1 cell line. Description: IL-6-JAK1/p-STAT3(Tyr705) inhibition cellular assay. Type of assay: cell-based. The following applies: Homo sapiens, 0.5 h; TF-1 cells, IL-6 50 ng/ml, 30 min; read-out: Cellular assay pSTAT3/IL-6 IC50.

The structures appear in SMILES notation. A value given as a limit tells only on which side of the number the result lay.

T1 sequence (P23458 561-860): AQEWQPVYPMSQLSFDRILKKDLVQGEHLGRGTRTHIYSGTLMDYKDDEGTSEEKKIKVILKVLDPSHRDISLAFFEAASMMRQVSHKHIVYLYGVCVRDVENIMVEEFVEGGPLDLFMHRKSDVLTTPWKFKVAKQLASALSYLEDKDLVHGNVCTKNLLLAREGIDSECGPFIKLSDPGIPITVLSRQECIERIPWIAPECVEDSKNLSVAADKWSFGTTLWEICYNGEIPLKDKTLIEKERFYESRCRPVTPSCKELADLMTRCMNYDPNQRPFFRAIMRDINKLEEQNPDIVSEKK

`CNC(=O)c1nnc(NC(=O)C2CC2)cc1Nc1nc2ccc(N3CC(F)(F)C3)cn2n1` [Example E10, 6-(cyclopropanecar-boxamido)-4-((6-(3,3-difluoroazetidin-1-yl)-[1,2,4]triazolo[1,5-a]pyridin-2-yl)amino)-N-methylpyridazine-3-carboxamide]: the IC50 in assay [1] is 3 nM; in assay [2] it was 47 nM; in assay [3], 0.15 nM; in assay [4], over 10 µM. The “Cellular assay Selectivity fold (TYK2/JAK1)” value in assay [2] is over 212 fold. Besides, the “Biochemical assay Selectivity fold (TYK2/JAK1)” value in assay [3] is given as 20 fold.

With `CNC(=O)c1nnc(NC(=O)C2CC2)cc1Nc1nc2ccc(N3CCC(N4CC(F)(F)C4)CC3)cn2n1` [Example E12, 6-(cyclopropanecar-boxamido)-4-((6-(4-(3,3-difluoroazetidin-1-yl)piperidin-1-yl)-[1,2,4]triazolo[1,5-a]pyridin-2-yl)amino)-N-methylpyridazine-3-carboxamide], the IC50 in assay [1] came to 1.7 nM; in assay [2] it was 6.31 nM; in assay [3] it was 0.024 nM; in assay [4], 9.93 µM. For the same compound, in assay [2], the “Cellular assay Selectivity fold (TYK2/JAK1)” value came out at 1478 fold. Moreover, the “Biochemical assay Selectivity fold (TYK2/JAK1)” value in assay [3] is recorded as 71 fold.

Regarding `CNC(=O)c1nnc(NC(=O)C2CC2)cc1Nc1nc2ccc(N3CCCC(N4CC(F)(F)C4)C3)cn2n1` (stereo not drawn) [Example E13, 6-(cyclopropanecar-boxamido)-4-((6-(3-(3,3-difluoroazetidin-1-yl)piperidin-1-yl)-[1,2,4]triazolo[1,5-a]pyridin-2-yl)amino)-N-methylpyridazine-3-carboxamide], the IC50 in assay [1] is 2.6 nM; in assay [2] it was 15.9 nM; in assay [3], 0.047 nM; in assay [4], over 10 µM. For the same compound, in assay [2], the “Cellular assay Selectivity fold (TYK2/JAK1)” value is on record as over 629 fold. Moreover, the “Biochemical assay Selectivity fold (TYK2/JAK1)” value in assay [3] came out at 55 fold.

Take `CNC(=O)c1nnc(NC(=O)C2CC2)cc1Nc1nc2ccc(N3CC(N4CCCCC4)C3)cn2n1` [Example E14, 6-(cyclopropanecar-boxamido)-N-methyl-4-((6-(3-(piperidin-1-yl)azetidin-1-yl)-[1,2,4]triazolo [1,5-a]pyridin-2-yl)amino) pyridazine-3-carboxamide]: the IC50 is 1.8 nM in assay [1], 42.6 nM in assay [2], 0.11 nM in assay [3] and over 10 µM in assay [4]. For the same compound, the “Cellular assay Selectivity fold (TYK2/JAK1)” value in assay [2] is listed as over 234 fold. The “Biochemical assay Selectivity fold (TYK2/JAK1)” value in assay [3] amounted to 16 fold.

Regarding `CNC(=O)c1nnc(NC(=O)C2CC2)cc1Nc1nc2ccc(N3CC(COC)C3)cn2n1` [Example E15, 6-(cyclopropanecar-boxamido)-4-((6-(3-(methoxymethyl)azetidin-1-yl)-[1,2,4]triazolo[1,5-a]pyridin-2-yl)amino)-N-methylpyridazine-3-carboxamide], the IC50 is 1.3 nM in assay [1], 8.14 nM in assay [2], 0.045 nM in assay [3] and over 10 µM in assay [4]. Further, the “Cellular assay Selectivity fold (TYK2/JAK1)” value in assay [2] was over 1228 fold. The “Biochemical assay Selectivity fold (TYK2/JAK1)” value in assay [3] came out at 29 fold.

With `CNC(=O)c1nnc(NC(=O)C2CC2)cc1Nc1nc2ccc(N3CC(OCCOC)C3)cn2n1` [Example E16, 6-(cyclopropanecar-boxamido)-4-((6-(3-(2-methoxyethoxy)azetidin-1-yl)-[1,2,4]triazolo[1,5-a]pyridin-2-yl)amino)-N-methylpyridazine-3-carboxamide], the IC50 in assay [1] was determined as 0.93 nM; in assay [2], 15.6 nM; in assay [3] it was 0.046 nM; in assay [4] it was 2.91 µM. Further, the “Cellular assay Selectivity fold (TYK2/JAK1)” value in assay [2] was determined as 186 fold. The “Biochemical assay Selectivity fold (TYK2/JAK1)” value in assay [3] was found to be 20 fold.

For the compound `CNC(=O)c1nnc(NC(=O)C2CC2)cc1Nc1nc2ccc(N3CC(F)(COC)C3)cn2n1` [Example E17, 6-(cyclopropanecar-boxamido)-4-((6-(3-fluoro-3-(methoxy-methyl)azetidin-1-yl)-[1,2,4]triazolo[1,5-a]pyridin-2-yl)amino)-N-methylpyridazine-3-carboxamide], the IC50 was determined as 2.5 nM in assay [1], 8.28 nM in assay [2], 0.071 nM in assay [3] and 2.63 µM in assay [4]. For the same compound, the “Cellular assay Selectivity fold (TYK2/JAK1)” value in assay [2] is 317 fold. Also, the “Biochemical assay Selectivity fold (TYK2/JAK1)” value in assay [3] is 35 fold.

Regarding `CNC(=O)c1nnc(NC(=O)C2CC2)cc1Nc1nc2ccc(N3CC(S(C)(=O)=O)C3)cn2n1` [Example E18, 6-(cyclopropanecar-boxamido)-N-methyl-4-((6-(3-(methyl-sulfonyl)azetidin-1-yl)-[1,2,4]triazolo [1,5-a]pyridin-2-yl)amino)pyridazine-3-carboxamide], the IC50 was 1.5 nM in assay [1], 645 nM in assay [2], 0.12 nM in assay [3] and over 10 µM in assay [4]. Further, the “Cellular assay Selectivity fold (TYK2/JAK1)” value in assay [2] is given as over 15.5 fold. Further, the “Biochemical assay Selectivity fold (TYK2/JAK1)” value in assay [3] turned out to be 13 fold.

As to `CNC(=O)c1nnc(NC(=O)C2CC2)cc1Nc1nc2ccc(N3CC(Oc4ccc(F)cc4F)C3)cn2n1` [Example E19, 6-(cyclopropanecar-boxamido)-4-((6-(3-(2,4-difluorophenoxy)azetidin-1-yl)-[1,2,4]triazolo[1,5-a]pyridin-2-yl)amino)-N-methylpyridazine-3-carboxamide], the IC50 in assay [1] is 8.4 nM; in assay [2] it was 105 nM; in assay [3], 0.14 nM; in assay [4], over 10 µM. Further, in assay [2], the “Cellular assay Selectivity fold (TYK2/JAK1)” value is reported as over 95 fold. Also, the “Biochemical assay Selectivity fold (TYK2/JAK1)” value in assay [3] is reported as 60 fold.

Consider `CNC(=O)c1nnc(NC(=O)C2CC2)cc1Nc1nc2ccc(N3CCC3COC)cn2n1` (stereo not drawn) [Example E20, 6-(cyclopropanecar-boxamido)-4-((6-(2-(methoxymethyl)azetidin-1-yl)-[1,2,4]triazolo[1,5-a]pyridin-2-yl)amino)-N-methylpyridazine-3-carboxamide], for which the IC50 in assay [1] is 3.2 nM; in assay [2] it was 16.4 nM; in assay [3], 0.089 nM; in assay [4] it was over 10 µM. In assay [2], the “Cellular assay Selectivity fold (TYK2/JAK1)” value is recorded as over 609 fold. In assay [3], the “Biochemical assay Selectivity fold (TYK2/JAK1)” value is on record as 36 fold.

As to `CNC(=O)c1nnc(NC(=O)C2CC2)cc1Nc1nc2ccc(N3CCC(N4CC(N(C)C)C4)CC3)cn2n1` [Example E21, 6-(cyclopropanecar-boxamido)-4-((6-(4-(3-(dimethylamino)azetidin-1-yl)piperidin-1-yl)-[1,2,4]triazolo [1,5-a]pyridin-2-yl)amino)-N-methylpyridazine-3-carboxamide], the IC50 in assay [1] is 2.78 nM; in assay [2], 42 nM; in assay [3], 0.077 nM; in assay [4], over 10 µM. Moreover, the “Cellular assay Selectivity fold (TYK2/JAK1)” value in assay [2] was over 238 fold. Further, in assay [3], the “Biochemical assay Selectivity fold (TYK2/JAK1)” value is 36 fold.

As for `CCN(CC)C1CN(c2ccc3nc(Nc4cc(NC(=O)C5CC5)nnc4C(=O)NC)nn3c2)C1` [Example E22, 6-(cyclopropanecar-boxamido)-4-((6-(3-(diethylamino)azetidin-1-yl)-[1,2,4]triazolo [1,5-a]pyridin-2-yl)amino)-N-methylpyridazine-3-carboxamide], the IC50 came out at 1.03 nM in assay [1], 37.2 nM in assay [2], 0.093 nM in assay [3] and 5.12 µM in assay [4]. Moreover, the “Cellular assay Selectivity fold (TYK2/JAK1)” value in assay [2] is listed as 138 fold. The “Biochemical assay Selectivity fold (TYK2/JAK1)” value in assay [3] was determined as 11 fold.

Consider `CNC(=O)c1nnc(NC(=O)C2CC2)cc1Nc1nc2ccc(N3CC(N(C)S(C)(=O)=O)C3)cn2n1` [Example F1, 6-(cyclopropanecarboxamido)-N-methyl-4-((6-(3-(N-methylmethylsulfonamido)azetidin-1-yl)-[1,2,4]triazolo[1,5-a]pyridin-2-yl)amino)pyridazine-3-carboxamide], for which the IC50 in assay [1] is 2.6 nM; in assay [2] it was 95 nM; in assay [3], 0.12 nM; in assay [4], over 10 µM. Moreover, the “Cellular assay Selectivity fold (TYK2/JAK1)” value in assay [2] is over 105 fold. Moreover, in assay [3], the “Biochemical assay Selectivity fold (TYK2/JAK1)” value worked out at 22 fold.

As for `CNC(=O)c1nnc(NC(=O)C2CC2)cc1Nc1nc2ccc(N3CC(C(C)O)C3)cn2n1` (stereo not drawn) [Example G1, 6-(cyclopropanecarboxamido)-4-((6-(3-(1-hydroxyethyl)azetidin-1-yl)-[1,2,4]triazolo[1,5-a]pyridin-2-yl)amino)-N-methylpyridazine-3-carboxamide], the IC50 in assay [1] was 1.8 nM; in assay [2], 9.05 nM; in assay [3], 0.076 nM; in assay [4], over 10 µM. For the same compound, in assay [2], the “Cellular assay Selectivity fold (TYK2/JAK1)” value was over 1104 fold. Also, the “Biochemical assay Selectivity fold (TYK2/JAK1)” value in assay [3] turned out to be 24 fold.
